# Measured values from patent US20250250582A1, “Plant Cells and Plants Modified to Increase Herbicide Resistance and Stress Tolerance and Methods of Using the Same” (The Board of Trustees of the University of Arkansas, priority 2018, published 2025).
# “And” between values parts separate entries of the source, which are not always exact repeats. Identical values can stand only once.
# Assays:
# [1] = test system: multiple-resistant E. colona (ECO-R); assay: Herbicide resistance profile of ECO-R; assay type: in vivo, Echinochloa colona; settings: data not shown
# Text: (§1) Beginning in 2010, through the 2016 cropping cycle, Echinochloa spp. from throughout the rice producing counties of Arkansas, USA, located along the Mississippi River were sampled for a survey of the current status of herbicide resistance. Seeds were bulk sampled from plants that had matured in rice and soybean production fields, which had survived at least one herbicide application, were collected and sent to the University of Arkansas Altheimer Laboratory in Fayetteville for characterization and evaluation of herbicide resistance to common rice herbicides. […] From this screening program, two populations of E. colona were selected for use in this experiment. […] To establish inbred and homozygous accessions for the experiment, a single plant, verified as resistant/susceptible of ECO-R and ECO-S were grown in isolation to produce seed for further experiments.
# Accession source and population profiling. From 2010 to 2016, the University of Arkansas weed physiology group has been collecting putative herbicide-resistant Echinochloa populations from rice production fields throughout the state of Arkansas. […] Collections took place in the late summer to early fall prior to rice harvest; these accessions were bulk sampled by in-field location and farm, with field histories collected when possible. All of the samples were submitted to the University of Arkansas Altheimer Laboratory for assessment of their resistance profile and characterized according to their species. […] Populations with unique profiles and of interest for further research were then grown in isolation to produce pureline seed. […] Another accession, E. colona susceptible (ECO-S), was also selected and grown in isolation. This accession was selected because of its similar cropping history and geographic location, as well as its high level of susceptibility to the herbicides of interest.
# [2] = test system: susceptible E. colona standard; assay: Determination of resistance level (visual injury), susceptible plants; settings: 2 X dose, visual 3 wk after treatment
# [3] = test system: susceptible E. colona (ECO-S); assay: RNA-sequencing differential gene expression, herbicide-treated vs nontreated ECO-S; settings: ECO-S-T vs ECO-S-N, 24 h
# Text: Pure-line generated seed of each accession were germinated in pots containing potting soil within a temperature/light controlled growth chamber set to a 14-hr day length, 33 C day temperature, and 24 C night time to simulate environmental conditions early in the rice growing season. A single plant was maintained in each of the pots and used for the treatments; two pots were used as individual biological replicates. […] Pots for each of the respective treatments were labeled as either ECO-R/S-T for the treated samples and ECO-R/S-N for the non-treated counterpart. To minimize the effect that the sprayer may play in the application, both plants of the ECO-R and ECO-S were treated at the same time. After approximately 30 minutes, allowing for the plants to dry, the treated and non-treated plants of both accessions were moved back into the growth chamber. Precisely 24-hours after application, the aboveground portion of each of the plants were removed and immediately frozen in liquid nitrogen to cease all biological function. Samples were then transferred to RNAlater™-ICE (Invitrogen, Carlsbad CA, USA) for shipment to the Clemson University Genomics Institute (CUGI), in Clemson, South Carolina.
# RNA was extracted from the young leaf tissues of both replications for the ECO-R and ECO-S, T and N samples, at Clemson University. Total RNA was extracted with a kit according to the manufactures instructions. The extracted RNA was treated with DNase (Invitrogen, Calsbad, CA, USA) to remove any DNA contamination prior to further processing. The samples were prepared for sequencing by CUGI. For library preparation, the TruSeq Stranded Total RNA kit (Illumina Inc., San Diego, CA, USA) was used according to the instructions provided by the manufacturer to produce a paired-end library for sequencing. Ribosomal RNA was removed using target-specific oligonucleotides paired with rRNA removal beads, removing all cytoplasmic and mitochondrial rRNA that may result in poor quality results. RNA was fragmented and reverse transcribed to cDNA using random primers, followed by a second strand cDNA synthesis. Each fragment is then ligated with an additional ‘A’ and an adapter for sequencing. The PCR enriched product is then used to create the final cDNA library. All samples were sequenced on an Illumina Hiseq 2500 platform housed in the Holdings Cancer Center at the Medical University of South Carolina, Charleston, SC, USA. Samples, regardless of treatments or replication were ran across three lanes to reduce sequencing errors from the equipment. The resulting data were processed by CUGI.
# A de novo transcriptome was assembled from the treatments described for this experiment as well as several treatments, which included herbicides profiled in ECO-R. The treatments were applied to both ECO-R and ECO-S samples with two replications as described previously. In total, 20 individual plants, from both the ECO-R and ECO-S accessions, as well as T and NT samples, were used for the assembly. The transcriptome was assembled using the Trinity RNA-Seq pipeline (Broad Institute, Cambridge, MA, USA). Raw data were assessed for quality using FastQC (Babraham Institute, Cambridge, UK) and then processed to remove adapter sequences and low quality bases using a sliding window method. The processed data were then rerun using FastQC to ensure high quality reads. Using the TrinityRNASeq 2.2.0 software, the samples were normalized, by replication, using a coverage size of 100 and kmer of 32. The normalized reads were then assembled as transcripts and genes using Trinity with the stranded library set as the default.
# [4] = test system: susceptible E. colona (ECO-S); assay: Herbicide resistance profile of ECO-S; assay type: in vivo, Echinochloa colona
# Text: as §1
# Accession source and population profiling. From 2010 to 2016, the University of Arkansas weed physiology group has been collecting putative herbicide-resistant Echinochloa populations from rice production fields throughout the state of Arkansas. […] Collections took place in the late summer to early fall prior to rice harvest; these accessions were bulk sampled by in-field location and farm, with field histories collected when possible. […]
# [5] = test system: resistant Echinochloa species; assay: Determination of resistance level (visual injury), resistant accessions; assay type: in vivo, E. colona and E. crus-galli; settings: visual 3 wk after treatment
# Text: The experiment was repeated once.
compound,measurement,setting,value
CCC(=O)Nc1ccc(Cl)c(Cl)c1 [propanil],level of resistance,[1],> 8 × field dose
same,susceptible plants killed,[2],100%
same,ABC transporter G family member 5 Fold Change,[3],2.8 fold
same,ABC transporter G family member 42 Fold Change,[3],1.5 fold
same,ACC synthase fold change,[3],−2.7 fold
same,CYP71A1 Fold Change,[3],2.9 fold
same,CYP71A21 Fold Change,[3],5.1 fold
same,CYP71D7 Fold Change,[3],5.9 fold
same,CYP94C1 Fold Change,[3],3.7 fold and 5.4 fold and 5.5 fold
same,CYP716B1 Fold Change,[3],3.0 fold
same,GSTU1 Fold Change,[3],2.5 fold and 2.7 fold
same,GSTU6 Fold Change,[3],2.3 fold and 4.1 fold
same,Heparan-alpha-glucosaminide N-acetyltransferase Fold Change,[3],2.5 fold
same,MSR-1 Fold Change,[3],2.1 fold
same,MYB44 fold change,[3],> 3 fold
same,MYC3 fold change,[3],3.4 fold
same,Probable glutathione S-transferase Fold Change,[3],1.8 fold
same,RGA2 fold change,[3],> 7.5 fold
same,RGA3 fold change,[3],1.7 fold
same,UGT73B4 Fold Change,[3],3.8 fold and 5.7 fold
same,UGT73C1 Fold Change,[3],3.1 fold
same,UGT73C2 Fold Change,[3],3.3 fold
same,UGT74D1 Fold Change,[3],2.2 fold
same,UGT75C1 Fold Change,[3],2.9 fold
same,Uncharacterized acetyltransferase At3g50280 Fold Change,[3],2.5 fold and 3.5 fold
same,multiple ACC oxidase genes fold change,[3],−1.8 to −2.2 fold
same,phosphoenolypyruvate carboxylase fold change,[3],−2.1 to −3.4 fold
same,pyruvate dehydrogenase fold change,[3],−5.6 to −6.2 fold
same,sugar transporter ERD6-like 6 fold change,[3],2.3 fold
same,DNA and RNA polymerase-related transcripts fold change,[3]; repressed by as much as,≤ −8.7 fold
same,ACCase and ACCase 2 fold change,[3]; repressed up to,up to −6.9 fold
same,tolerance observed,[4]; ECO-S (Example 1),approximately twice
same,tolerance observed,[4]; ECO-S (Example 2),~3 × field dose
same,injury of ECO187,[5]; 2 X dose (4480 g ai/ha),97%
same,injury of resistant Echinochloa species,"[5]; 2 X dose, propanil range excludes ECO187",27-57%
